Reference: US7365069B2, “Pyrimidone derivatives” (Bexel Pharmaceuticals Inc., priority 2002, dated 2008)

Tests used:
Male Wistar rats [1] = experiment: Gastroulcerogenic potential (stomach lesions after the paw edema test); type: in vivo; conditions: 10 mg/kg body weight, oral, rat
Description: (§1) The carrageenan paw edema test is performed as described by Winter et al (Proc. Soc. Exp. Biol. Med, 111, 544, 1962). Male Wistar rats are selected and the body weights are equivalent within each group. The rats are fasted for eighteen hours with free access to water. The rats are dosed orally with the test compound suspended in vehicle containing 0.5% methylcellulose. The control rats are administered the vehicle alone. After an hour, the rats are injected with 0.1 ml of 1% Carrageenan solution in 0.9% saline into the sub-plantar surface of the right hind paw. Paw volume is measured using water plethysmograph before and after 3 hours of carrageenan injection. The average of foot swelling in drug treated animals is compared with that of control animals. Anti-inflammatory activity is expressed as the percentage inhibition of edema compared with control group [Arzneim-Forsch/Drug Res., 43(I), 1, 44-50,1993; Ottemess and Bliven, Laboratory Models for Testing NSAIDs, In Non-Steroidal Anti-Inflammatory Drugs, (J. Lombardino, ed. 1985)]. In order to evaluate their role on the ulcer formation, the animals are sacrificed and the stomach is taken out and flushed with 1% formalin. The stomach is opened along the greater curvature. The haemorrhagic puncta and sulci are identified microscopically and images are captured. The stomach lesions are calculated.

Male Wistar rats [2] = experiment: Rat carrageenan paw edema test; type: in vivo; conditions: 10 mg/kg body weight, oral, paw volume 3 hours after carrageenan, read-out: Rat Paw Edema model % inhibition
Description: Rat Carrageenan Paw Edema Test
as §1

COX-2 = target: T1, COX-2 (Homo sapiens, UniProt P35354); experiment: Human whole blood assay, COX-2 inhibition (PGE2 ELISA after LPS); type: cell-based; conditions: LPS 24 h
T1 construct: incubation of human blood with lipopolysaccharide (LPS), which induces COX-2 production in the blood; endogenous in cells; host or cells: fresh human whole blood from volunteers, treated with aspirin and then LPS
T1 sequence (P35354 18-604): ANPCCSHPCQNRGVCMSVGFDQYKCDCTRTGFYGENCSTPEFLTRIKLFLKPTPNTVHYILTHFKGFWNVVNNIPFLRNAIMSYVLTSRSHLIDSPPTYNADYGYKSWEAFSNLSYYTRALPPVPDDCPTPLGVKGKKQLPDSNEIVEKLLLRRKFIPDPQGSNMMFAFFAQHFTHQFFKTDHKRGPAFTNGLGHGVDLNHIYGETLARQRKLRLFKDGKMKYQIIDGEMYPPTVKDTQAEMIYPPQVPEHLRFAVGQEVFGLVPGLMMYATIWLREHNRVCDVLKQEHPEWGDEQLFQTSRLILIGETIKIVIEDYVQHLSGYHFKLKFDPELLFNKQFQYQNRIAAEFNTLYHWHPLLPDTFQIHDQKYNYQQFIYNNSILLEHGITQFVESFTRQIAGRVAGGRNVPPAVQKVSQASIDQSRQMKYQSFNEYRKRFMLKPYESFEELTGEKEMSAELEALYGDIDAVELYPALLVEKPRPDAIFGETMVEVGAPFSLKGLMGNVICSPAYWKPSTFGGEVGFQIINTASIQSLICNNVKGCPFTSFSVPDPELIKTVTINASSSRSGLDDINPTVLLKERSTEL
Description: In Vivo Evaluation of Cyclooxygenase-2 (COX-2) Inhibition Activity
The COX-2 inhibition activities of the compounds illustrated in the examples are determined by the following method.
Human whole blood provides a protein and cell rich milieu appropriate for the study of biochemical efficacy of anti-inflammatory compounds such as selective COX-2 inhibitors. […] This is correlating with the observation that COX-2 inhibitors have no effect on prostaglandin E2 (PGE2) production in normal blood. These inhibitors are active only after incubation of human blood with lipopolysaccharide (LPS), which induces COX-2 production in the blood.
Fresh blood is collected in tubes containing potassium EDTA by vein puncture from make volunteers. The subjects should have no apparent inflammatory conditions and not taken NSAIDs for at least 7 days prior to blood collection. Blood is treated with aspirin in vitro (10 μg/ml, at time zero) to inactivate COX-1, and then with LPS (10 μg/ml) along with test agents or vehicle. The blood is incubated for 24 h at 37° C., after which the tubes are centrifuged, the plasma is separated and stored at −80° C. (J. Pharmacol. Exp. Ther, 271, 1705, 1994; Proc. Natl. Acad. Sci. USA., 96, 7563, 1999). The plasma is assayed for PGE2 using Cayman ELISA kit as per the procedure outlined by the manufacturer (Cayman Chemicals, Ann Arbor, USA).

IL-6 = IL-6 production in LPS-stimulated human whole blood; type: cell-based; conditions: LPS 4 h
Description: This assay determines the effect of test compounds on the production of IL-6 from human whole blood. Compounds are tested for their ability to downregulate the production of IL-6 in activated whole blood. The test compounds are pre-incubated for 15 minutes at 37° C. and then stimulated with Lipopolysaccharide (Salmonella abortus equi, 1 μg/ml) for 4 h at 37° C. in 5% CO2. The levels of Interleukin-6 are estimated using Enzyme linked Immunosorbent assay performed in a 96 well format as per the procedure of the manufacturer (Cayman Chemical, Ann Arbor, USA).

SF-268 = experiment: DTP human tumor cell line one-dose prescreen, SF-268; type: cell-based; conditions: 48 hours, Alamar Blue, test/control, read-out: Percentage growth CNS SF-268
Description: (§2) DTP Human Tumor Cell Line Screen
(§3) Methodology of the In Vitro Cancer Screen
(§4) The current assay utilizes a 384 well plate format and fluorescent staining technologies resulting in greater screening capacity for testing of synthetic samples.
(§5) The cell lines of the cancer-screening panel are grown in RPMI 1640 medium containing 5% fetal bovine serum and 2 mM L-glutamine. For a typical screening experiment, cells are inoculated into 96 well microtiter plates in 100 μL. After cell inoculation, the microtiter plates are incubated at 37° C., 5% CO2, 95% air and 100% relative humidity for 24 h prior to addition of experimental drugs. The cells are plated a densities of 5000 cells/well (MCF7), 1000 cells/well (NC1—H460), and 7500 cells/well (SF-268) to allow for varying doubling time of the cell lines. Each plate contains all three cell lines, a series of dilutions of standard agents, total kill wells and appropriate controls. Plates are incubated under standard conditions for 24 hours prior to addition of experimental compounds or extracts.
(§6) Addition of Experimental Agents (Pure Compounds)
(§7) Experimental compounds are solubilized in dimethyl sulfoxide (DMSO) at 400-times the desired maximum test concentration (maximum final DMSO concentration of 0.25%) and stored frozen. Compounds are then diluted with complete media with 0.1% gentamicin sulfate (5 μl of test sample in 100% DMSO is added to 565 μl of complete medium). 20 μl of this solution is then dispensed into test wells containing 50 μl of cell suspension to yield a test concentration of 1.00E-04M.
(§8) Two standard drugs, meaning that their activities against the cell lines are well documented, are tested against each cell line: NSC 19893 (5-FU) and NSC 123127 (Adriamycin).
(§9) After compound addition, plates are incubated at standard conditions for 48 hours, 10 μl/well Alamar Blue is added and the plates are incubated for an additional 4 hours. Fluorescence is measured using an excitation wavelength of 530 nm and an emission wavelength of 590 nm.
(§10) Calculation of Percent Test Cell Growth/Control (Untreated) Cell Growth (T/C)
(§11) Percent growth is calculated on a plate-by-plate basis for test wells relative to control wells. Percent Growth is expressed as the ratio of fluorescence of the test well to the average fluorescence of the control wells x 100.

NCI-H460 = experiment: DTP human tumor cell line one-dose prescreen, NCI-H460; type: cell-based; conditions: 48 hours, Alamar Blue, test/control, read-out: Percentage growth Lung NCI-H460
Description: as §2, §3, §4, §5, §6, §7, §8, §9, §10, §11

MCF-7 = experiment: DTP human tumor cell line one-dose prescreen, MCF-7; type: cell-based; conditions: MCF7, 48 hours, Alamar Blue, test/control, read-out: Percentage growth Breast MCF-7
Description: as §2, §3, §4, §5, §6, §7, §8, §9, §10, §11

TNF-α = TNF-α production in LPS-stimulated human whole blood; type: cell-based; conditions: 1 μM, LPS 4 h
Description: Tumor Necrosis Factor Alpha (TNF-α)
This assay determines the effect of test compounds on the production of TNF-α in human whole blood. TNF-α assay is carried out as described by Armin hatzelmann and Christian Schudt (J Pharm Exp Ther 297, 261, 2001). Compounds are tested for their ability to inhibit the activity of TNF-α in human whole blood. The test compounds are pre-incubated for 15 minutes at 37° C. and then stimulated with Lipopolysaccharide (Salmonella abortus equi, 1 μg/ml) for 4 h at 37° C. in 5% CO2. The levels of TNF-α are estimated using Enzyme linked Immunosorbent assay performed in a 96 well format as per the procedure of the manufacturer (Cayman Chemical, Ann Arbor, USA).

Row | Compound | Gastroulcerogenic potential (% incidence of ulceration) (Male Wistar rats [1]) [%] | inhibition in vivo at 10 mg/kg (Male Wistar rats [2]) [%] | melting point [°C] | inhibition at 1 µM (COX-2) [%] | inhibition at 0.25 µM (IL-6) [%] | activity at 100 µM (SF-268) [%] | activity at 100 µM (NCI-H460) [%] | inhibition at 0.25 µM (COX-2) [%] | activity at 100 µM (MCF-7) [%] | inhibition at 1 µM (IL-6) [%] | inhibition at 1 µM (TNF-α) [%] | inhibition at 10 µM (COX-2; 10 μM) [%] | inhibition at 100 µM (IL-6; 100 μM) [%] | inhibition at 10 µM (IL-6; 10 μM) [%]
1 | CSc1ccc(-c2nc(SC)c(C#N)c(=O)n2-c2ccc(F)cc2)cc1 [Example 5, 5-cyano-2-[(4-methylthio)phenyl]-4-(methylthio)-1-[4-fluorophenyl]-6-oxo-1,6-dihydropyrimidine] | 37.5 | 13.3 | 219 to 221 | 40.5 | 51 | – | – | – | – | – | – | – | – | –
2 | CCOc1ccc(-n2c(-c3ccc(SC)cc3)nc(SC)c(C#N)c2=O)cc1 [Example 21, 5-cyano-1-(4-ethoxyphenyl)-4-(methylthio)-2-[4-(methylthio)phenyl]-6-oxo-1,6-dihydropyrimidine] | – | – | 209 to 213 | – | – | 91 | 92 | 7.79 | 84 | 17.3 | 46.6 | – | – | –
3 | CSc1ccc(-c2nc(SC)c(C#N)c(=O)n2-c2ccc(C(C)C)cc2)cc1 [Example 9, 5-cyano-1-(4-isopropylphenyl)-4-(methylthio)-2-[4-(methylthio)phenyl]-6-oxo-1,6-dihydropyrimidine] | 0 | 37.2 | 180 to 181 | – | 31.1 | – | – | – | – | – | – | – | – | –
4 | CSc1ccc(-n2c(-c3ccc(C(F)(F)F)cc3)nc(SC)c(C#N)c2=O)cc1 [Example 4] | 25 | 38.5 | 228 to 229 | – | 48.4 | – | – | – | – | – | – | 50.1 | – | –
5 | CSc1ccc(-n2c(-c3ccccn3)nc(SC)c(C#N)c2=O)cc1 [Example 30, 5-cyano-4-(methylthio)-1-[4-(methylthio)phenyl]-6-oxo-2-pyridin-2-yl-1,6-dihydropyrimidine] | – | – | 158 to 161 | 14.9 | – | 86 | 27 | – | 38 | – | – | – | – | –
6 | CSc1nc(-c2ccc(S(C)(=O)=O)cc2)n(-c2ccc(C)cc2)c(=O)c1C#N [Example 7, 5-cyano-2-[(4-methylsulphonyl)phenyl]-4-(methylthio)-1-(4-methylphenyl)-6-oxo-1,6-dihydropyrimidine] | 25 | 28.1 | 242 to 244 | – | – | – | – | 31.7 | – | 37.1 | – | – | – | –
7 | CSc1ccc(-c2nc(SC)c(C#N)c(=O)n2-c2ccc(Cl)cc2)cc1 [Example 18, 1-(4-chlorophenyl)-5-cyano-4-(methylthio)-2-[4-(methylthio)phenyl]-6-oxo-1,6-dihydropyrimidine] | – | – | 203 to 205 | – | – | 86 | 98 | – | 89 | – | 35.7 | – | 44.8 | –
8 | CCOC(=O)c1c(SC)nc(-c2ccc(SC)cc2)n(-c2ccc(C)cc2)c1=O [Example 41, ethyl 1-(4-methylphenyl)-4-(methylthio)-2-[4-(methylthio)phenyl]-6-oxo-1,6-dihydropyrimidine-5-carboxylate] | – | – | 153 to 155 | – | – | 89 | 86 | – | 85 | – | – | – | – | 21.9
9 | CSc1ccc(-n2c(-c3ccccc3)nc(SC)c(C#N)c2=O)cc1 [Example 3, 5-cyano-2-phenyl-4-(methylthio)-1-[4-(methylthio)phenyl]-6-oxo-1,6-dihydropyrimidine] | – | – | 204 to 205 | – | 11.3 | 90 | 30 | – | 82 | – | – | – | – | –
10 | CSc1nc(-c2cccnc2)n(-c2ccc(F)cc2)c(=O)c1C#N [Example 26, 5-cyano-1-(4-fluorophenyl)-4-(methylthio)-6-oxo-2-pyridin-3-yl-1,6-dihydropyrimidine] | – | – | 190 to 193 | – | – | 99 | 79 | – | 74 | – | 30.6 | – | – | –
11 | CSc1ccc(-c2nc(SC)c(C(=O)O)c(=O)n2-c2ccc(C)cc2)cc1 [Example 8, 5-carboxy-2-[(4-methylthio)phenyl]-4-(methylthio)-1-(4-methylphenyl)-6-oxo-1,6-dihydropyrimidine] | – | – | 173 to 175 | 40.1 | – | 89 | 51 | – | 77 | 69.4 | – | – | – | –
